In publication PMC5252617 (Pharmaceutical research, 2012) one finds KI (inactivation) data, which are given here for two molecules.

Read-outs that look alike come from different tables or passages of the source.

The target of the assay is T1, human apical sodium-dependent bile acid transporter (hASBT) (Homo sapiens, UniProt Q12908).
T1 sequence (Q12908 1-348): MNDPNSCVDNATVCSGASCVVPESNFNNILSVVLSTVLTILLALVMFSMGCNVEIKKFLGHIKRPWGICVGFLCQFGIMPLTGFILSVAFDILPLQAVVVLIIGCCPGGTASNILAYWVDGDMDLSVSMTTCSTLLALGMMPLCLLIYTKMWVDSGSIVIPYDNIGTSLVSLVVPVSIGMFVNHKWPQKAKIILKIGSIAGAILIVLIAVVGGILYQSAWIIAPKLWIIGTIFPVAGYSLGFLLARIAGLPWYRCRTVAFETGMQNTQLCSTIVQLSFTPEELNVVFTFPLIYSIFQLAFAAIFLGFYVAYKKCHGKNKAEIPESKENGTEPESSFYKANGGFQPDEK
Nature of the assay: time-dependent inactivation of [3H]-TCA uptake after pre-incubation, hASBT-MDCK. The format is cell-based.

Regarding `C[C@H](CCC(=O)O)[C@H]1CC[C@H]2[C@@H]3[C@H](O)C[C@@H]4C[C@@H](Cl)CC[C@]4(C)[C@H]3CC[C@]12C` [3β-Cl-CDCA, 3β-chloro-7α-hydroxy-5β-cholan-24-oic acid], the KI (inactivation) (read-out: 3β-Cl-CDCA) is 810 ± 190 nM. On to `C[C@H](CCC(=O)O)[C@H]1CC[C@H]2[C@@H]3[C@H](OS(C)(=O)=O)C[C@@H]4C[C@H](O)CC[C@]4(C)[C@H]3CC[C@]12C` [7α-Ms-CDCA, 3α-hydroxy-7α-mesyloxy-5β-cholan-24-oic acid], for which the KI (inactivation) (read-out: 7α-Ms-CDCA) turned out to be 1190 ± 60 nM.
